# Measured values as given in publication PMC6566410, “Novel Diamide-Based Benzenesulfonamides as Selective Carbonic Anhydrase IX Inhibitors Endowed with Antitumor Activity: Synthesis, Biological Evaluation and In Silico Insights” (International Journal of Molecular Sciences, 2019).
# Columns and labels:
# hCA IX = hCA IX (Homo sapiens, UniProt Q16790); test: stopped-flow CO2 hydrase assay; details: for Selectivity ratio I/IX: KI hCA I / KI hCA IX; for Selectivity ratio II/IX: KI hCA II / KI hCA IX
# Source text: (§3) An Applied Photophysics stopped-flow instrument was used for assaying the CA catalysed CO2 hydration activity, as reported earlier [17]. The inhibition constants were obtained by non-linear least-squares methods using PRISM 3 and the Cheng-Prusoff equation as reported earlier, and represent the mean from at least three different determinations. The four tested CA isofoms were recombinant ones obtained in-house as reported earlier [26, 27, 28, 29].
# UO-31 = test: NCI one-dose SRB assay; assay type: cell-based; details: Homo sapiens; for activity at 10 µM: UO-31 (Renal Cancer), 1.00E-5 Molar, one dose, read-out: Growth Percent
# Method: (§1) First, all diamide-based benzenesulfonamides herein reported 5a–h were screened for their antitumor activity at one dose (10^−5 M) assay against a panel of sixty cancer cell lines through the National Cancer Institute (NCI) Developmental Therapeutic Program (www.dtp.nci.nih.gov), according to US-NCI protocol. The cell growth and cell viability were evaluated using the sulforhodamine B (SRB) colorimetric assay.
# The obtained data were reported as mean-graph of the percentage growth of the different treated tumour cells (Supplementary Materials). Exploration of results for this assay confirmed that the examined diamide-based benzenesulfonamides 5a–h had non-significant activity towards most NCI cancer cell lines.
# (§2) This assay was carried out according to the protocol of the Drug Evaluation Branch, NCI, Bethesda. The cell growth and cell viability were evaluated using the sulforhodamine B (SRB) colorimetric assay, as reported earlier.
# hCA XII = hCA XII (Homo sapiens, UniProt O43570); test: stopped-flow CO2 hydrase assay; details: for Selectivity ratio I/XII: KI hCA I / KI hCA XII; for Selectivity ratio II/XII: KI hCA II / KI hCA XII
# Sequence of hCA XII (O43570 25-354): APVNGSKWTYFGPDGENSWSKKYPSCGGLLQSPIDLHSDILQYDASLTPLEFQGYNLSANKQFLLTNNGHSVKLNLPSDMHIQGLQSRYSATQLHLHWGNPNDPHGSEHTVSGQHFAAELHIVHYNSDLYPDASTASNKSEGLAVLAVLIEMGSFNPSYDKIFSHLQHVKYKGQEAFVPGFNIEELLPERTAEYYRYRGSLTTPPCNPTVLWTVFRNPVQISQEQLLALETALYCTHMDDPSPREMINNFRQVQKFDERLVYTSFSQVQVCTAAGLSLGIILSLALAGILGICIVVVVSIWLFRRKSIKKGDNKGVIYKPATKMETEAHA
# Source text: as §3
# hCA II = hCA II (Homo sapiens, UniProt P00918); test: stopped-flow CO2 hydrase assay
# Source text: as §3
# SR = test: NCI one-dose SRB assay; assay type: cell-based, human; details: SR (Leukemia), 1.00E-5 Molar
# Method: as §1, §2
# SF-268 = test: NCI one-dose SRB assay; assay type: cell-based; details: Homo sapiens, SF-268 (CNS Cancer), 1.00E-5 Molar, read-out: Growth Percent
# Method: as §1, §2
# MDA-MB-435 = test: NCI one-dose SRB assay; assay type: cell-based; details: Homo sapiens, MDA-MB-435 (Melanoma), 1.00E-5 Molar, read-out: Growth Percent
# Method: as §1, §2
# K-562 = test: NCI one-dose SRB assay; assay type: cell-based; details: Homo sapiens, K562, K-562 (Leukemia), 1.00E-5 Molar, read-out: Growth Percent
# Method: as §1, §2
# HCC-2998 = test: NCI one-dose SRB assay; assay type: cell-based; details: Homo sapiens, HCC-2998 (Colon Cancer), 1.00E-5 Molar, read-out: Growth Percent
# Method: as §1, §2
# SNB-19 = test: NCI one-dose SRB assay; assay type: cell-based; details: Homo sapiens, SNB-19 (CNS Cancer), 1.00E-5 Molar, read-out: Growth Percent
# Method: as §1, §2
# MDA-MB-468 = test: NCI one-dose SRB assay; assay type: cell-based; details: Homo sapiens, MDA-MB-468 (Breast Cancer), 1.00E-5 Molar, read-out: Growth Percent
# Method: as §1, §2
# HCT-15 = test: NCI one-dose SRB assay; assay type: cell-based; details: Homo sapiens, HCT-15 (Colon Cancer), 1.00E-5 Molar, read-out: Growth Percent
# Method: as §1, §2
# DU-145 = test: NCI one-dose SRB assay; assay type: cell-based; details: Homo sapiens, DU-145 (Prostate Cancer), 1.00E-5 Molar, read-out: Growth Percent
# Method: as §1, §2
# NCI-H226 = test: NCI one-dose SRB assay; assay type: cell-based; details: Homo sapiens, NCI-H226 (Non-Small Cell Lung Cancer), 1.00E-5 Molar, read-out: Growth Percent
# Method: as §1, §2
# HS 578T = test: NCI one-dose SRB assay; assay type: cell-based; details: Homo sapiens, HS 578T (Breast Cancer), 1.00E-5 Molar, read-out: Growth Percent
# Method: as §1, §2
# HOP-92 = test: NCI one-dose SRB assay; assay type: cell-based; details: Homo sapiens, HOP-92 (Non-Small Cell Lung Cancer), 1.00E-5 Molar, read-out: Growth Percent
# Method: as §1, §2
# RPMI-8226 = test: NCI one-dose SRB assay; assay type: cell-based; details: Homo sapiens, RPMI-8226 (Leukemia), 1.00E-5 Molar, read-out: Growth Percent
# Method: as §1, §2
# MCF7 = test: NCI one-dose SRB assay; assay type: cell-based; details: Homo sapiens, MCF7 (Breast Cancer), 1.00E-5 Molar, read-out: Growth Percent
# Method: as §1, §2
# HOP-62 = test: NCI one-dose SRB assay; assay type: cell-based; details: Homo sapiens, HOP-62 (Non-Small Cell Lung Cancer), 1.00E-5 Molar, read-out: Growth Percent
# Method: as §1, §2
# SK-MEL-5 = test: NCI one-dose SRB assay; assay type: cell-based; details: Homo sapiens, SK-MEL-5 (Melanoma), 1.00E-5 Molar, read-out: Growth Percent
# Method: as §1, §2
# SF-539 = test: NCI one-dose SRB assay; assay type: cell-based; details: Homo sapiens, SF-539 (CNS Cancer), 1.00E-5 Molar, read-out: Growth Percent
# Method: as §1, §2
# UACC-257 = test: NCI one-dose SRB assay; assay type: cell-based; details: Homo sapiens, UACC-257 (Melanoma), 1.00E-5 Molar, read-out: Growth Percent
# Method: as §1, §2
# CCRF-CEM = test: NCI one-dose SRB assay; assay type: cell-based; details: Homo sapiens, CCRF-CEM (Leukemia), 1.00E-5 Molar, read-out: Growth Percent
# Method: as §1, §2
# OVCAR-8 = test: NCI one-dose SRB assay; assay type: cell-based; details: Homo sapiens, OVCAR-8 (Ovarian Cancer), 1.00E-5 Molar, read-out: Growth Percent
# Method: as §1, §2
# SF-295 = test: NCI one-dose SRB assay; assay type: cell-based; details: Homo sapiens, SF-295 (CNS Cancer), 1.00E-5 Molar, read-out: Growth Percent
# Method: as §1, §2
# SW-620 = test: NCI one-dose SRB assay; assay type: cell-based; details: Homo sapiens, SW-620 (Colon Cancer), 1.00E-5 Molar, read-out: Growth Percent
# Method: as §1, §2
# COLO 205 = test: NCI one-dose SRB assay; assay type: cell-based; details: Homo sapiens, COLO 205 (Colon Cancer), 1.00E-5 Molar, read-out: Growth Percent
# Method: as §1, §2
# SK-MEL-28 = test: NCI one-dose SRB assay; assay type: cell-based; details: Homo sapiens, SK-MEL-28 (Melanoma), 1.00E-5 Molar, read-out: Growth Percent
# Method: as §1, §2
# [1] = tested on: panel of sixty cancer cell lines; test: NCI one-dose SRB assay, whole panel; assay type: cell-based; details: Homo sapiens, mean over the panel, 1.00E-5 Molar, read-out: Mean Growth Percent
# Method: as §1, §2
SMILES,Ki (hCA IX) [nM],Selectivity ratio I/IX (hCA IX),Selectivity ratio II/IX (hCA IX),activity at 10 µM (UO-31) [%],Ki (hCA XII) [nM],Selectivity ratio I/XII (hCA XII),Selectivity ratio II/XII (hCA XII),Ki (hCA II) [nM],activity at 10 µM (SF-268) [%],activity at 10 µM (MDA-MB-435) [%],activity at 10 µM (K-562) [%],activity at 10 µM (HCC-2998) [%],activity at 10 µM (SNB-19) [%],activity at 10 µM (MDA-MB-468) [%],activity at 10 µM (HCT-15) [%],activity at 10 µM (DU-145) [%],activity at 10 µM (NCI-H226) [%],activity at 10 µM (HS 578T) [%],activity at 10 µM (HOP-92) [%],activity at 10 µM (RPMI-8226) [%],also measured
"COc1ccc(C=C(NC(=O)c2ccccc2)C(=O)Nc2ccc(S(N)(=O)=O)cc2)cc1OC [Compound 5g, N-(1-(3,4-Dimethoxyphenyl)-3-oxo-3-((4-sulfamoylphenyl)amino)prop-1-en-2-yl)benzamide]",123,17.9,3.6,77.9,9.8,225.3,45.7,448,104,107,108,106,100,111,101,117,93.3,94.8,126,107,melting point: 250 to 253 °C; Growth Percent (SR): 82.62%; activity at 10 µM (MCF7): 106%; activity at 10 µM (HOP-62): 102%; activity at 10 µM (SK-MEL-5): 99.3%; activity at 10 µM (SF-539): 92.6%; activity at 10 µM (UACC-257): 101%; activity at 10 µM (CCRF-CEM): 109%; activity at 10 µM (OVCAR-8): 97.1%; activity at 10 µM (SF-295): 102%; activity at 10 µM (SW-620): 102%; activity at 10 µM (COLO 205): 110%; activity at 10 µM (SK-MEL-28): 109%; activity at 10 µM [1]: 103%
"COc1ccc(C=C(NC(=O)c2ccccc2)C(=O)Nc2ccc(S(N)(=O)=O)cc2)c(OC)c1 [Compound 5f, N-(1-(2,4-Dimethoxyphenyl)-3-oxo-3-((4-sulfamoylphenyl)amino)prop-1-en-2-yl)benzamide]",73.7,69.9,4,82.5,134,38.2,2.2,294,114,97,116,110,102,74.8,99.1,111,98.4,106,114,109,melting point: 245 to 250 °C; Growth Percent (SR): 95.41%; activity at 10 µM (MCF7): 87.6%; activity at 10 µM (HOP-62): 117%; activity at 10 µM (SK-MEL-5): 102%; activity at 10 µM (SF-539): 98.2%; activity at 10 µM (UACC-257): 99.6%; activity at 10 µM (CCRF-CEM): 107%; activity at 10 µM (OVCAR-8): 100%; activity at 10 µM (SF-295): 110%; activity at 10 µM (SW-620): 107%; activity at 10 µM (COLO 205): 118%; activity at 10 µM (SK-MEL-28): 109%; activity at 10 µM [1]: 103%
"COc1ccc(C=C(NC(=O)c2ccccc2)C(=O)Nc2ccc(S(N)(=O)=O)cc2)cc1 [Compound 5e, N-(1-(4-Methoxyphenyl)-3-oxo-3-((4-sulfamoylphenyl)amino)prop-1-en-2-yl)benzamide]",78,12.9,1.5,86.4,42.8,23.5,3,128,113,97.5,101,106,100,108,104,113,105,102,109,107,Growth Percent (SR): 88.45%; activity at 10 µM (MCF7): 98.5%; activity at 10 µM (HOP-62): 104%; activity at 10 µM (SK-MEL-5): 100%; activity at 10 µM (SF-539): 96.8%; activity at 10 µM (UACC-257): 102%; activity at 10 µM (CCRF-CEM): 106%; activity at 10 µM (OVCAR-8): 99.4%; activity at 10 µM (SF-295): 112%; activity at 10 µM (SW-620): 101%; activity at 10 µM (COLO 205): 110%; activity at 10 µM (SK-MEL-28): 106%; activity at 10 µM [1]: 103%
"Cc1ccc(C=C(NC(=O)c2ccccc2)C(=O)Nc2ccc(S(N)(=O)=O)cc2)o1 [Compound 5h, N-(1-(5-Methylfuran-2-yl)-3-oxo-3-((4-sulfamoylphenyl)amino)prop-1-en-2-yl)benzamide]",8.3,985,13.8,65.2,57.9,141.2,2,115,100,99.3,96.1,104,96.4,98.7,92.9,99.9,102,76.5,70.1,84.7,"melting point: 240 to 243 °C; inhibition at 10 µM (UO-31; UO-31, one dose 10^−5 M, read-out: percentage growth inhibition (GI%)): 35%; activity at 10 µM (MCF7): 97.1%; activity at 10 µM (HOP-62): 95.2%; activity at 10 µM (SK-MEL-5): 82.3%; activity at 10 µM (SF-539): 90.2%; activity at 10 µM (UACC-257): 99.4%; activity at 10 µM (CCRF-CEM): 96.9%; activity at 10 µM (OVCAR-8): 95.5%; activity at 10 µM (SF-295): 94.2%; activity at 10 µM (SW-620): 106%; activity at 10 µM (COLO 205): 108%; activity at 10 µM (SK-MEL-28): 114%; activity at 10 µM [1]: 94.6%"
